PMC9767854, “Discovery and mechanism studies of a novel ATG4B inhibitor Ebselen by drug repurposing and its anti-colorectal cancer effects in mice” (Cell & Bioscience, 2022)

Assays:
Caspase 3 = target: T1, Caspase 3 (Homo sapiens, UniProt P42574); experiment: Caspase activity assay kit, CASP3; assay type: biochemical; details: 10 μM
T1 construct: Beyotime (assay kit only) C1115
Procedure: (§1) The enzyme activity of Caspase 1, Caspase 2, Caspase 3, Caspase 4, Caspase 6, Caspase 8 and Caspase 9 were determined via the activity assay kits (C1101, C1107, C1115, C1121, C1135, C1151 and C1157) from Beyotime (Shanghai, China). Then the experimental procedures were performed according to the manufacturer’s protocols.

HCT116 cells = experiment: Long-lived protein degradation assay; assay type: cell-based; details: 10 μM Ebselen, 2 μM Torin 1, 12 h
Procedure: Long-lived protein degradation assay was performed referring to the reported protocol. In brief, HCT116 cells were seeded in 6-well plates and cultured overnight, and then incubated with L-methionine-free DMEM (Thermo Fisher Scientific, 21,013,024) supplemented with 10% dialyzed FBS (Biological Industries, 2,148,391) for 30 min at 37℃ for depleting the methionine reserve. Subsequently, the cells were incubated with medium containing 50 μM AHA (MCE, HY-140346A) for 18 h to label AHA on proteins. After 2 h incubation with 10 × L-methionine to chase out the short-lived AHA-labeled proteins, cells were treated with compounds as indicated in regular medium for 12 h. Then the cells were harvested, fixed and permeabilized sequentially until they were incubated in the click reaction master mix (50 μM TAMRA alkyne [AAT Bioquest, AAT-487], 1 mM TCEP [MCE, HY-W011500], 100 μM TBTA [GLPBIO, GC45003], 1 mM CuSO4 [Sangon Biotech, C3008] in PBS) in the dark for 2 h. Finally, cells were washed and suspended in 500 μl PBS and analyzed by flow cytometry (BECKMAN, CytoFLEX S).

HCT116 based xenograft = experiment: HCT116 subcutaneous xenograft tumor model; assay type: in vivo, BALB/c-nu/nu mice; details: i.p., compared with SW620 xenografts
Procedure: Four- to six-weeks-old BALB/C nu/nu female mice purchased from the Experimental Animal Center of Sun Yat-Sen University, were approved by the Animal Ethics Committee at Sun Yat-sen University and kept in specific-pathogen-free environment. Approximately 2 × 10^6 SW620 cells or 1 × 10^7 HCT116 cells were injected subcutaneously into the dorsal flank on the right side of the mice. Different groups were divided randomly when the tumor volume was approximately 60–80 mm^3, before drug administration intraperitoneally (i.p.). Tumor volume was measured by calipers and calculated using the equation: 0.5 × length × width^2. At the end of the experiments, the mice were sacrificed and tumors were dissected and weighed. In particular, we employed Servicebio (Wuhan, China) to carry out H&E staining and immunohistochemistry assay.
(§2) Supplementary file 13578_2022_944_MOESM1_ESM.docx: Additional file 1: Figure S1. Screening of ATG4B inhibitors based on the approved drugs library by FRET assay. […] (D) Candidate compound number and name correspondence table, and IC50 calculation of nine commercially available compounds for ATG4B by FRET assay. Figure S2. […] Figure S3. […] Figure S5. […] Figure S6.

[1] = target: T2, endogenous ATG4B in HeLa cells (Homo sapiens, UniProt Q9Y4P1); experiment: Endogenous ATG4B activity in cells by FRET assay; assay type: cell-based
T2 construct: endogenous in cells; host or cells: HeLa
Source text: as §2

WT and ATG4B KO HCT116 = experiment: Apoptosis detection by cleaved PARP western blot; assay type: cell-based; details: low or high concentrations of Ebselen; STS 2 μM; 6 h
[2] = test system: Caspase 1, 2, 3, 4, 6, 8 and 9; experiment: Caspase activity assay kits, caspase panel; assay type: biochemical; details: 10 μM; most caspases other than CASP2 and CASP3
Procedure: as §1

[3] = test system: SW620 cell-based xenografts; experiment: SW620 subcutaneous xenograft tumor model; assay type: in vivo, BALB/c-nu/nu mice
Procedure: Fig. 7 Ebselen suppresses colorectal cancer tumor growth. A A brief diagram of the animal experiment for subcutaneous xenografted tumor model. 2 × 10^6 (2e^6) SW620 cells were xenografted into BALB/c-nu/nu mice by subcutaneous injection (s.c.). After 10 days, mice were injected intraperitoneally (i.p.) with indicated doses of Ebselen every two days, and monitoring of tumor volume and body weight changes were performed. B–D Representative tumor images and tumor weight at the end time point were captured from SW620 cell-based xenografts. Mean tumor weight ± SEM (C) and mean tumor volume ± SEM (D) were shown. E The inhibitory effect of ATG4 in xenografted tumors was detected by FRET assay. F, I The protein level of autophagy and apoptosis in xenografted tumors were detected by western blot. Representative results were shown and the statistical results of each group were obtained from seven mice. J, K The immunohistochemistry analysis of Ki67 in xenografted tumors (group vehicle and Ebselen 10 mg/kg). Bar = 20 μm. […]
Four- to six-weeks-old BALB/C nu/nu female mice purchased from the Experimental Animal Center of Sun Yat-Sen University, were approved by the Animal Ethics Committee at Sun Yat-sen University and kept in specific-pathogen-free environment. […] Tumor volume was measured by calipers and calculated using the equation: 0.5 × length × width^2. […]

[4] = test system: ATG4 (mainly ATG4B) in tumors; experiment: ATG4 activity in xenografted tumors by FRET assay; assay type: in vivo, BALB/c-nu/nu mice; details: SW620 xenografts, 5, 10, 20 mg/kg
Procedure: FRET-based assay for ATG4B or ATG4A activity was operated as previously described [5, 17]. Briefly, Recombinant protein ATG4B (0.75 μg/ml) or ATG4A (5 μg/ml) was incubated with compounds in reaction buffer (150 mM NaCl, 20 mM Tris–HCl, pH 8.0, 0.1% CHAPS, 1 mM EDTA) at 37 °C. After 30 min, substrate FRET-GATE-16 (50 μg/ml) was added to a final volume of 50 μl. The reaction was recorded via relative fluorescence intensity ratio of 527 nm/477 nm (RFU). The final inhibition rate of the compound for ATG4 was calculated as: (RFUcompound-RFUNC)/(RFUCON-RFUNC) × 100%; respectively, NC as negative control without inhibitor, CON as control without enzymes. For ATG4 activity determination in cells and tissues, cells or separated tumor samples were homogenized in a native lysis buffer (150 mM NaCl, 20 mM Tris–HCl, pH 7.6, 1% TritonX-100, 1 mM EDTA) without protease inhibitors. Then 5 μg total proteins from each sample was added into FRET assay system after clean supernatant proteins were separated. The reaction was recorded via relative fluorescence intensity ratio of 527 nm/477 nm. Finally, the inhibition rates of ATG4B were calculated with the vehicle or CM group as the negative control (ATG4 activity defined as 100%).

ATG4B KO HCT116 = experiment: Cell viability by CCK-8 assay, ATG4B KO HCT116; assay type: cell-based
Procedure: WT/ATG4B KO HCT116, WT/ATG4B KO SW620 and WT/ATG4B KO RKO cells were seeded in 96-well plate at 1000–1500 cells per well for cell viability assay, and seed in 6-well plate at 1 × 10^5 cells per well for cell number counting. After 12 h, the indicated drugs were added to the medium and cultured for another 96 h. Total viable cell numbers were counted by a cell counter (BioRAD), and cell viability was determined by cell-count-8 assay kit (CCK-8, Bimake, B34304) according to the manufacturer’s protocol.

T1 sequence (P42574 29-175 limits assumed, species assumed): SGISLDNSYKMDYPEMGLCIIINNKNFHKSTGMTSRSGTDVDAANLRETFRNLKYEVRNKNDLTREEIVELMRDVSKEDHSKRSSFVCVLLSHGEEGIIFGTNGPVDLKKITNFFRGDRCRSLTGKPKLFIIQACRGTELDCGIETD
T1 sequence (P42574 176-277 limits assumed, species assumed): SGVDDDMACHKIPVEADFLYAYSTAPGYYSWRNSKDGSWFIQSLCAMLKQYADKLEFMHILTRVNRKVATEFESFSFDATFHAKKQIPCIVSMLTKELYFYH
T2 sequence (Q9Y4P1 whole entry): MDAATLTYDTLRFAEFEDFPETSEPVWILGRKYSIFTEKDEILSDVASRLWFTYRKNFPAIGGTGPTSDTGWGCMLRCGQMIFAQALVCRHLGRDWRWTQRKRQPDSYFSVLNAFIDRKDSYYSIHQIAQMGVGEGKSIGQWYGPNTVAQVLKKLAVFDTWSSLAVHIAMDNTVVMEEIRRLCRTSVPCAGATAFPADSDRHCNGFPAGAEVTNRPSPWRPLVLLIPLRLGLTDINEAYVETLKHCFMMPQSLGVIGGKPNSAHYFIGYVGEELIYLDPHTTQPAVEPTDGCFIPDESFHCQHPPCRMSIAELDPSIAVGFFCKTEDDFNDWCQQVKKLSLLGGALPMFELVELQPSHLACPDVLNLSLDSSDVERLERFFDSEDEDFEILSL

## O=c1c2ccccc2[se]n1-c1ccccc1 [Ebselen]
Caspase 3
  effect on CASP3 activity: certain inhibition
HCT116 cells
  autophagic long-lived protein degradation induced by Torin 1: significantly inhibited
HCT116 based xenograft
  tumor suppression: slightly weaker potential for tumor suppression
[1]
  inhibition of endogenous ATG4B in cells: inhibited in a time- and dose-dependent manner
WT and ATG4B KO HCT116
  apoptosis (cleaved PARP): did not show any increase in apoptosis
[2]
  effect on most caspase activities: no significant effect
[3]; 5 mg/kg i.p. every two days
  anti-tumor effect: obvious anti-tumor effect
[3]; 5, 10, 20 mg/kg i.p. every two days, compared with vehicle
  growth of tumors: significantly suppress the growth of tumors
[4]
  activity of ATG4 in tumors: significantly inhibited in a dose-dependent manner
ATG4B KO HCT116; Fig. 6F
  effect on viability of ATG4B deficient cells: almost no effect
ATG4B KO HCT116; Homo sapiens, HCT-116, CCK-8, 96 h
  IC50: 28.1 µM
